Assay results reported in patent US10829501B2 (BRISTOL-MYERS SQUIBB COMPANY, priority 2016, dated 2020).
Where a name gives a salt, the structure may show the parent alone.
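Also: rho kinase reaction read by separating phosphorylated from unphosphorylated peptide on chip, with inhibition of kinase activity computed per concentration across a dose-response series.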

Each compound was assayed against ROCK2 (Homo sapiens, UniProt O75116) (assay: ROCK2 kinase inhibition assay (LABCHIP 3000 Reader, FITC peptide substrate)). Details: not given.
Chain of ROCK2 (O75116 whole entry, species assumed): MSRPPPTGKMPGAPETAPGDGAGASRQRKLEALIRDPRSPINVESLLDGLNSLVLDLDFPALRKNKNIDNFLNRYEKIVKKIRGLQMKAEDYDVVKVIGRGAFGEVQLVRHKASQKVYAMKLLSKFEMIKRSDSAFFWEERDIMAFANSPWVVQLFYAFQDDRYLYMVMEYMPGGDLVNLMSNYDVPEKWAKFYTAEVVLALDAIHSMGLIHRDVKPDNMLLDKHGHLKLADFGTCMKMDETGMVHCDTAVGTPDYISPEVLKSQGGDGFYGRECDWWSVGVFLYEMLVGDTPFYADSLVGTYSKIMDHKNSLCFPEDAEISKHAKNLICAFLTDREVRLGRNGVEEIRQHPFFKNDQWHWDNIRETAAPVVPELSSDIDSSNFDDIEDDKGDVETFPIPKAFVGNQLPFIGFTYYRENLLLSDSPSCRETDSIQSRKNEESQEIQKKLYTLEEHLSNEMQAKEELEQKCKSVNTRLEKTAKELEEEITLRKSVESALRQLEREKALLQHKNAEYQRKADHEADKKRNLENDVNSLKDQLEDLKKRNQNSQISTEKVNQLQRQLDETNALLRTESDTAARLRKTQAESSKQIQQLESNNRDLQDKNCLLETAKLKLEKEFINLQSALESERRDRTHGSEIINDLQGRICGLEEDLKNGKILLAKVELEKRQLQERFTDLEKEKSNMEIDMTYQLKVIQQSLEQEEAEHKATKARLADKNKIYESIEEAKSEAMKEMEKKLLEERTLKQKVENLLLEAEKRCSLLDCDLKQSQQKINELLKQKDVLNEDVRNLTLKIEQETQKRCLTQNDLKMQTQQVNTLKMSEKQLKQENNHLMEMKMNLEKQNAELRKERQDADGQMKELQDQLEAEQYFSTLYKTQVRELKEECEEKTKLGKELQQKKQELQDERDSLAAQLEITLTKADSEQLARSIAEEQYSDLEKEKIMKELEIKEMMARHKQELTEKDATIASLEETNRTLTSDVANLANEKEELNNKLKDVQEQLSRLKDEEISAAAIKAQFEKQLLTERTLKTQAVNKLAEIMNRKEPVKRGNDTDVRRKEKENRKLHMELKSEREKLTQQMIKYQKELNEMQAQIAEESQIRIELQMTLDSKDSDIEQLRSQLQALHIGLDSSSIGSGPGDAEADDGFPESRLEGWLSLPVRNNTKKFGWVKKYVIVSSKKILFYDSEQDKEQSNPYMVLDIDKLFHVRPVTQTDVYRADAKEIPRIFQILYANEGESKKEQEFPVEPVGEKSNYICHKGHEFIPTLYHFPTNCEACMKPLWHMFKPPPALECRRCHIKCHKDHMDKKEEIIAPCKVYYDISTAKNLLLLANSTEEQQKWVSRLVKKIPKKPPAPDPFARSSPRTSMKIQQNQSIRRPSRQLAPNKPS
In the case of `CN1CCN(c2ccn3c(C(=O)N[C@H]4CC5(C4)C[C@H](Oc4ncccc4C(N)=O)C5)cnc3c2)CC1` (stereo partly drawn) [Example 336, N-((aR)-6-((3-carbamoylpyridin-2-yl)oxy)spiro[3.3]heptan-2-yl)-7-(4-methylpiperazin-1-yl)imidazo[1,2-a]pyridine-3-carboxamide], the IC50 is reported as 5 to 50 nM.
`CC(C)(O)COc1ccc2c(C(=O)NC3CC4(C3)CC(Oc3cc(-c5cc(F)c(F)c(F)c5)ccc3C(N)=O)C4)cnn2c1` (stereo not drawn) [Example 283, N-(6-((4-carbamoyl-3′,4′,5′-trifluoro-[1,1′-biphenyl]-3-yl)oxy)spiro[3.3]heptan-2-yl)-6-(2-hydroxy-2-methylpropoxy)pyrazolo[1,5-a]pyridine-3-carboxamide] was tested, and the IC50 was 50 to 250 nM.
In the case of `CC(C)(O)COc1ccc2c(C(=O)NC3CC4(C3)CC(Oc3cc(/C=C/CCO)ccc3C(N)=O)C4)cnn2c1` (stereo not drawn) [Example 290, (E)-N-(6-(2-carbamoyl-5-(4-hydroxybut-1-en-1-yl)phenoxy)spiro[3.3]heptan-2-yl)-6-(2-hydroxy-2-methylpropoxy)pyrazolo[1,5-a]pyridine-3-carboxamide], the IC50 is reported as 5 to 50 nM.
`NC(=O)c1cccnc1O[C@H]1CC2(C[C@H](NC(=O)c3cnn4cc(CCC(F)(F)F)ccc34)C2)C1` (stereo partly drawn) [Example 118, N-((aR)-6-((3-carbamoylpyridin-2-yl)oxy)spiro[3.3]heptan-2-yl)-6-(3,3,3-trifluoropropyl) pyrazolo[1,5-a[pyridine-3-carboxamide, trifluoroacetate] showed an IC50 of 5 to 50 nM.
In the case of `Cn1c(C(=O)N[C@H]2CC3(C2)C[C@H](Oc2ncccc2C(N)=O)C3)cc2ccc(Cl)cc21` (stereo partly drawn) [Example 154, N-((aR)-6-((3-carbamoylpyridin-2-yl)oxy)spiro[3.3]heptan-2-yl)-6-chloro-1-methyl-1H-indole-2-carboxamide], the IC50 is reported as 50 to 250 nM.
For `NC(=O)c1cccnc1O[C@H]1CC2(C[C@H](NC(=O)c3cnn4ccccc34)C2)C1` (stereo partly drawn) [Example 311, N-((aR)-6-((3-carbamoylpyridin-2-yl)oxy)spiro[3.3]heptan-2-yl)pyrazolo[1,5-a]pyridine-3-carboxamide], the IC50 was 50 to 250 nM.
For `COc1cccc(-c2ccc(C(N)=O)c(OC3CC4(CC(NC(=O)c5cnn6cc(OCC(C)(C)O)ccc56)C4)C3)c2)c1` (stereo not drawn) [Example 239, N-(6-((4-carbamoyl-3′-methoxy-[1,1′-biphenyl]-3-yl)oxy)spiro[3.3]heptan-2-yl)-6-(2-hydroxy-2-methylpropoxy)pyrazolo[1,5-a]pyridine-3-carboxamide], the IC50 was 5 to 50 nM.
Compound `NC(=O)c1cccnc1O[C@H]1CC2(C[C@H](NC(=O)c3nn(C(F)F)c4cc(Br)ccc34)C2)C1` (stereo partly drawn) [Example 172, 6-bromo-N-((aR)-6-((3-carbamoylpyridin-2-yl)oxy)spiro[3.3]heptan-2-yl)-1-(difluoromethyl)-1H-indazole-3-carboxamide, trifluoroacetate] has an IC50 of 5 to 50 nM.
`NC(=O)c1cccnc1O[C@H]1CC2(C[C@H](NC(=O)c3cnc4ccc(F)cn34)C2)C1` (stereo partly drawn) [Example 327, N-((aR)-6-((3-carbamoylpyridin-2-yl)oxy)spiro[3.3]heptan-2-yl)-6-fluoroimidazo[1,2-a]pyridine-3-carboxamide] showed an IC50 of 50 to 250 nM.
`CC(C)(O)COc1ccc2c(C(=O)NC3CC4(C3)CC(Oc3ccc(F)cc3C(N)=O)C4)cnn2c1` (stereo not drawn) [Example 270, N-(6-(2-carbamoyl-4-fluorophenoxy)spiro[3.3]heptan-2-yl)-6-(2-hydroxy-2-methylpropoxy)pyrazolo[1,5-a]pyridine-3-carboxamide] showed an IC50 of 50 to 250 nM.
With `Cn1cc(-c2ccc3c(C(=O)N[C@H]4CC5(C4)C[C@H](Oc4ncccc4C(N)=O)C5)cnn3c2C2CC2)cn1` (stereo partly drawn) [Example 357, N-((aR)-6-((3-carbamoylpyridin-2-yl)oxy)spiro[3.3]heptan-2-yl)-7-cyclopropyl-6-(1-methyl-1H-pyrazol-4-yl)pyrazolo[1,5-a]pyridine-3-carboxamide] the IC50 was < 5 nM.
With `NC(=O)c1ccccc1O[C@H]1CC2(C[C@H](NC(=O)c3cnn4ccccc34)C2)C1` (stereo partly drawn) [Example 303, N-((aR)-6-(2-carbamoylphenoxy)spiro[3.3]heptan-2-yl)pyrazolo[1,5-a]pyridine-3-carboxamide] the IC50 was 50 to 250 nM.
In the case of `CC(O)c1ccn2c(C(=O)N[C@H]3CC4(C3)C[C@H](Oc3ncccc3C(N)=O)C4)cnc2c1` (stereo partly drawn) [Example 328, N-((aR)-6-((3-carbamoylpyridin-2-yl)oxy)spiro[3.3]heptan-2-yl)-7-(1-hydroxyethyl)imidazo[1,2-a]pyridine-3-carboxamide], the IC50 is reported as 50 to 250 nM.
`NC(=O)c1cccnc1O[C@H]1CC2(C[C@H](NC(=O)c3cn4cc(Cl)ccc4n3)C2)C1` (stereo partly drawn) [Example 153, N-((aR)-6-((3-carbamoylpyridin-2-yl)oxy)spiro[3.3]heptan-2-yl)-6-chloroimidazo[1,2-a]pyridine-2-carboxamide, trifluoroacetate] showed an IC50 of 250 to 2500 nM.
`CC(C)(C)c1cc(C(=O)N[C@H]2CC3(C2)C[C@H](Oc2ncccc2C(N)=O)C3)n(CCC(F)(F)F)n1` (stereo partly drawn) [Example 114, 2-((aR)-6-(3-(tert-butyl)-1-(3,3,3-trifluoropropyl)-1H-pyrazole-5-carboxamido)spiro [3.3]heptan-2-yl)oxy) nicotinamide, trifluoroacetate] gave an IC50 of 250 to 2500 nM.
For `Cc1nc(N2CCC(F)(F)C2)sc1C(=O)N[C@H]1CC2(C1)C[C@H](Oc1ncccc1C(N)=O)C2` (stereo partly drawn) [Example 92, N-((aR)-6-((3-carbamoylpyridin-2-yl)oxy)spiro[3.3]heptan-2-yl)-2-(3,3-difluoropyrrolidin-1-yl)-4-methylthiazole-5-carboxamide, trifluoroacetate], the IC50 was 50 to 250 nM.
`[H][C@]1(Oc2ncccc2C(N)=O)C[C@@]2(C[C@H](NC(=O)c3nn(C(C)(C)C#N)c4cc(OCCC(F)(F)F)ccc34)C2)C1` (stereo partly drawn) [Example 411, N-((aR)-6-((3-carbamoylpyridin-2-yl)oxy)spiro[3.3]heptan-2-yl)-1-(2-cyanopropan-2-yl)-6-(3,3,3-trifluoropropoxy)-1H-indazole-3-carboxamide, TFA] was tested, and the IC50 was 5 to 50 nM.
In the case of `[2H]C([2H])([2H])n1cc(-c2cc(C(=O)N[C@H]3CC4(C3)C[C@H](Oc3ncccc3C(N)=O)C4)cc(S(C)(=O)=O)c2)cn1` (stereo partly drawn) [Example 53, 2-{[(4s)-6-{3-methanesulfonyl-5-[1-(^2H3)methyl-1H-pyrazol-4-yl]benzamido}spiro[3.3]heptan-2-yl]oxy}pyridine-3-carboxamide], the IC50 is reported as 5 to 50 nM.
Work on `CC(C)(O)COc1ccc2c(C(=O)NC3CC4(C3)CC(Oc3cc(-c5cnn(C6CCOCC6)c5)ccc3C(N)=O)C4)cnn2c1` (stereo not drawn) [Example 278, N-(6-(2-carbamoyl-5-(1-(tetrahydro-2H-pyran-4-yl)-1H-pyrazol-4-yl)phenoxy)spiro[3.3]heptan-2-yl)-6-(2-hydroxy-2-methylpropoxy)pyrazolo[1,5-a]pyridine-3-carboxamide] yielded an IC50 of 5 to 50 nM.

Same assay, conditions: read-out: ROCK2 Activity (ROCK2 IC50); 5 μM ATP, 1.5 μM peptide substrate, pH 7.5
In the case of `Cc1nc(C(=O)NC2CC3(C2)CC(Oc2ncccc2C(N)=O)C3)c2ccc(-c3cnn(C)c3)cn12` [Example 460, N-((aR)-6-((3-carbamoylpyridin-2-yl)oxy)spiro[3.3]heptan-2-yl)-3-methyl-6-(1-methyl-1H-pyrazol-4-yl)imidazo[1,5-a]pyridine-1-carboxamide], the IC50 is reported as 5 to 50 nM.
`CC(C)(C)c1cccc(C(=O)NC2CC3(C2)CC(Oc2ncccc2C(N)=O)C3)c1` [Example 423, 2-(((aR)-6-(3-(tert-butyl)benzamido)spiro[3.3]heptan-2-yl)oxy)nicotinamide] showed an IC50 of 5 to 50 nM.
